These are literature values, as cited in US6653500B2, “Method for the manufacture of Anagrelide” (Shire US Inc., priority 2000, dated 2003).

SMILES strings stand for the structures. Where two headings read alike, the source gives them in different places.

For data set [1] the following is noted: solid.
The conditions of data set [2]: humans, radiolabeled base.
The conditions of data set [3]: monkeys, radiolabeled base.

In the case of `O=C1CN2Cc3c(ccc(Cl)c3Cl)N=C2N1` [compound III, 6,7-dichloro-1,5-dihydroimidazo[2,1-b]quinazolin-2(3H)-one], the “solubility in most organic solvents” value is “low”. Besides, the aqueous solubility entry in data set [1] is “low”. Also, in data set [2], the “absorption into blood plasma” value is on record as “complete absorption”. Besides, the “absorption into blood plasma” value in data set [3] was “complete absorption”.
